{"source": "patent US9078916B2", "about": "“Method for producing and using a copolymer of sodium carboxymethyl cellulose and gossypol” (Limited Liability Company “Nearmedic Plus”, priority 2010, dated 2015)", "system": "6-year children with autistic spectrum disorders and severe cognitive impairments", "assay": "Complex therapy of 6-year children, copolymer tablets added to basic therapy with neuroleptics", "type": "in vivo", "description": "The method can be used for the treatment of autistic disorders and cognitive impairments in 6-year children. A treatment regimen is selected by a specialist depending on the severity of a disease, condition and age of a patient. In particular, the treatment can be performed according to the following regimen: administration of a medicament 3 times per day for 5 days followed by the 5-day break. This ten-day cycle is repeated […]. The total duration of the treatment is 30 days. A dose of the active agent is 36 mg/day. Then, the course should be repeated.\nThe efficacy and safety of the use of sodium carboxymethyl cellulose polymer with a degree of substitution of 0.35 to 0.80 and gossypol, of formula (I) in a complex therapy of 6-year children with autistic spectrum disorders and severe cognitive impairments were studied. The children were administered with a medicament comprising a copolymer of sodium carboxymethyl cellulose with a degree of substitution of 0.35 to 0.80 and gossypol, of formula (I) (tablets containing 12 mg of the active agent, which composition is shown in Table 2) on the background of basic therapy with neuroleptics such as neuleptil, haloperidol, aminazine, teraligen, triphtazine, eglonil, azaleptin chlorprothixene. Antidepressants (e.g., anafranil) and anticonvulsants (finlepsin, trileptal, or topamax) were used in some cases. Neuroleptics, antidepressants and anticonvulsants were used in optimal therapeutic doses. […] When the therapy was supplemented with a medicament comprising a copolymer of sodium carboxymethyl cellulose with a degree of substitution of 0.35 to 0.80 and gossypol, of formula (I), the manifestations of encopresis and enuresis ceased, catatonic disorders decreased, cognitive functions improved, and speech appeared. In patients with mild to moderate autism, restricted repetitive behavior disappeared.", "key": {"[1]": {"conditions": "patients with very severe autism, therapy supplemented with the medicament"}}, "note": "“Also recorded” adds a separate entry of the source.", "data": [{"substance": "sodium salt of copolymer of carboxymethyl cellulose with a degree of substitution of 0.35 to 0.80 and gossypol", "values": [{"measurement": "resistance to therapy with neuroleptics / psychotropic drugs", "setting": "added to basic therapy, especially patients with very severe autism, 12 mg tablets", "result": "decreased; also recorded: elimination"}, {"measurement": "negative side effects on a patient", "setting": "in vivo", "result": "does not have negative side effects"}, {"measurement": "tolerability", "setting": "in vivo", "result": "well tolerable"}, {"measurement": "toxic and allergic reactions", "setting": "in vivo", "result": "not reported"}, {"measurement": "restricted repetitive behavior", "setting": "patients with mild to moderate autism", "result": "disappeared"}, {"measurement": "catatonic disorders", "setting": "[1]", "result": "decreased"}, {"measurement": "manifestations of encopresis and enuresis", "setting": "[1]", "result": "ceased"}, {"measurement": "speech", "setting": "[1]", "result": "appeared"}, {"measurement": "cognitive functions", "setting": "therapy supplemented with the medicament", "result": "improved; also recorded: significant improvement"}, {"measurement": "mental condition of the patients", "setting": "when administering the medicament", "result": "improved"}]}]}
